In patent publication US20220096450A1, “Compounds and Methods for Treating or Preventing Heart Failure” (DREXEL UNIVERSITY, priority 2019, published 2022):

Biological target: SQOR (Homo sapiens, UniProt Q9Y6N5)
Experiment: DCIP endpoint assay of SQOR activity
Type: biochemical
Settings: Table 3; read-out: IC50
Protocol: The assay is based on the ability of reduced CoQ1, which is produced in the SQOR reaction, to nonenzymically reduce 2,6-dichloroindiphenol (DCIP) (Δεox-red=20 mM−1 cm−1 at 600 nm). Reaction mixtures containing SQOR, substrates (H2S, sulfite, CoQ1) and various concentrations of an inhibitor are incubated in 96-well plates for 60 s. The reactions are quenched by addition of formaldehyde and N-ethylmaleimide to denature SQOR and consume unreacted H2S, respectively, and are then incubated for 10 min prior to addition of DCIP. The absorbance at 600 nm is read 30 s after DCIP addition by using a BioTek Synergy 2 plate reader.

SQOR, sequence (Q9Y6N5 whole entry): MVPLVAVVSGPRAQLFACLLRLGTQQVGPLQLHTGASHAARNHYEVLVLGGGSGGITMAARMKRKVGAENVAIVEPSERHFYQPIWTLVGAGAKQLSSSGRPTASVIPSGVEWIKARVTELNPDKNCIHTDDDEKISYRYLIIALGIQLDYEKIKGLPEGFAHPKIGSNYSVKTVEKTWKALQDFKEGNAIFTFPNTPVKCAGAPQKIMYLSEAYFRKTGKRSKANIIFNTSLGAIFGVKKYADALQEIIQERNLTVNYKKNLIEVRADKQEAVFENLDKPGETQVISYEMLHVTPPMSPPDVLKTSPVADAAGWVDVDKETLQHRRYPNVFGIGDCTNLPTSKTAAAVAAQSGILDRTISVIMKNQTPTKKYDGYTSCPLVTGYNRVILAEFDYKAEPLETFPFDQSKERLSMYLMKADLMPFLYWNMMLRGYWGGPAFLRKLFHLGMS

Going from `Cc1cccnc1-c1cc(-c2ccc(F)cc2)c(C#N)c(OCCN2CCOCC2)n1` [2-(2-Morpholinoethoxy)-4-(4-fluorophenyl)-6-(3-methylpyridin-2-yl)pyridine-3-carbonitrile] to `Cc1cccnc1-c1cc(-c2ccc(F)cc2)c(C#N)c(OCCCN(C)C)n1` [2-(3-(Dimethylamino)propoxy)-4-(4-fluorophenyl)-6-(3-methylpyridin-2-yl)pyridine-3-carbonitrile], the IC50 rises from 270 nM to 2700 nM (10-fold).

Compared with `CN(C)CCCOc1nc(-c2ccccn2)cc(-c2ccc(F)cc2)c1C#N` [2-(3-(Dimethylamino)propoxy)-4-(4-fluorophenyl)-6-(pyridin-2-yl)pyridine-3-carbonitrile], `C=CCOc1nc(-c2ccccn2)cc(-c2ccc(F)cc2)c1C#N` [2-(Allyloxy)-4-(4-fluorophenyl)-6-(pyridin-2-yl)pyridine-3-carbonitrile] is 310-fold lower in IC50: 2200 nM for the first, 7.2 nM for the second.

`Cc1cccnc1-c1cc(-c2ccc(F)cc2)c(C#N)c(OCc2ccccn2)n1` [2-((Pyridin-2-yl)methoxy)-4-(4-fluorophenyl)-6-(3-methylpyridin-2-yl)pyridine-3-carbonitrile] and `Cc1cccnc1-c1cc(-c2ccc(F)cc2)c(C#N)c(OCc2cccnc2)n1` [2-((Pyridin-3-yl)methoxy)-4-(4-fluorophenyl)-6-(3-methylpyridin-2-yl)pyridine-3-carbonitrile] are within 1.5-fold of each other in IC50: 32 nM for the first, 40 nM for the second.

First: Cc1cccnc1-c1cc(-c2ccc(F)cc2)c(C#N)c(OCc2ccncc2)n1 [2-((Pyridin-4-yl)methoxy)-4-(4-fluorophenyl)-6-(3-methylpyridin-2-yl)pyridine-3-carbonitrile]
Second: COc1ccc(-c2cc(-c3ncccc3C)nc(OC)c2C#N)cc1 [2-Methoxy-4-(4-methoxyphenyl)-6-(3-methylpyridin-2-yl)pyridine-3-carbonitrile]
The IC50 of the first is 5.6-fold lower: 120 nM for the first, 670 nM for the second. The first is the more potent here.

Compared with `N#Cc1c(-c2ccc(F)cc2)cc(-c2ccccn2)nc1OC[C@H]1CCC(=O)N1` [2-((R)-5-(Methoxy)pyrrolidin-2-one)-4-(4-fluorophenyl)-6-(pyridin-2-yl)pyridine-3-carbonitrile], `N#Cc1c(-c2ccc(F)cc2)cc(-c2ccccn2)nc1OC[C@@H]1CCC(=O)N1` [2-((S)-5-(Methoxy)pyrrolidin-2-one)-4-(4-fluorophenyl)-6-(pyridin-2-yl)pyridine-3-carbonitrile] is 14-fold higher in IC50: 2700 nM for the first, 39000 nM for the second.

First: N#CCOc1nc(-c2ccccn2)cc(-c2ccc(F)cc2)c1C#N [2-(Cyanomethoxy)-4-(4-fluorophenyl)-6-(pyridin-2-yl)pyridine-3-carbonitrile]
Second: COc1nc(-c2ccccc2[N+](=O)[O-])cc(-c2ccc(F)cc2)c1C#N [4-(4-Fluorophenyl)-2-methoxy-6-(2-nitrophenyl)pyridine-3-carbonitrile]
The IC50 of the first is 3.6-fold higher: 25 nM for the first, 7 nM for the second.

Compared with `COc1nc(-c2ccccc2)cc(-c2ccccc2)c1C` [2-Methoxy-3-methyl-4,6-diphenylpyridine], `COc1nc(-c2ccccc2)cc(-c2cccc(N)c2)c1C#N` [4-(3-Aminophenyl)-2-methoxy-6-phenylpyridine-3-carbonitrile] is 3.4-fold higher in IC50: 440 nM for the first, 1500 nM for the second. The first is the more potent here.

First: COc1nc(-c2ccccc2)cc(-c2cccc([N+](=O)[O-])c2)c1C#N [2-Methoxy-4-(3-nitrophenyl)-6-phenylpyridine-3-carbonitrile]
Second: COc1nc(-c2ccccc2)cc(-c2cccc(O)c2)c1C#N [4-(3-Hydroxyphenyl)-2-methoxy-6-phenylpyridine-3-carbonitrile]
The IC50 of the first is 25-fold higher: 48000 nM for the first, 1900 nM for the second.

First: COc1nc(-c2ccccc2)cc(-c2ccc(N)cc2)c1C#N [4-(4-Aminophenyl)-2-methoxy-6-phenylpyridine-3-carbonitrile]
Second: COc1nc(-c2ccccc2)cc(-c2ccc(O)cc2)c1C#N [4-(4-Hydroxyphenyl)-2-methoxy-6-phenylpyridine-3-carbonitrile]
The IC50 of the first is 5.2-fold lower: 92 nM for the first, 480 nM for the second.

Work on `COc1nc(-c2ccc(O)cc2)cc(-c2ccc(F)cc2)c1C#N` [4-(4-Fluorophenyl)-6-(4-hydroxyphenyl)-2-methoxypyridine-3-carbonitrile] yielded an IC50 of 1000 nM.
